Test results taken from ChEMBL document CHEMBL6074701, “Pyridazine Compounds as NLRP3 Inhibitors for Treating Parkinson's Disease or Frontotemporal Dementia” (ACS Med Chem Lett, 2024).

Test: Inhibition of NLRP3 inflammasome activation in human THP-1 cells assessed as reduction in LPS induced IL-1beta level preincubated with LPS for 3 hrs followed by compound addition and measured after 2 hrs in presence of nigericin by HTRF analysis
Type: cell-based

IC50	Compound
< 300 pM	CCN1CC[C@H]2CCN(c3ccc(-c4ccc(C(F)(F)F)cc4O)nn3)[C@H]2C1
< 300 pM	CCN1CC[C@H]2CCN(c3cc(C)c(-c4ccc(C)cc4O)nn3)[C@H]2C1
< 300 pM	CN1CC[C@H]2CCN(c3cc(C(F)F)c(-c4ccc(Cl)cc4O)nn3)[C@H]2C1
< 300 pM	Cc1cc(N2CCO[C@H]3CCN(C)C[C@H]32)nnc1-c1ccc(C(F)(F)F)cc1O
< 300 pM	CCc1cc(C)cc(O)c1-c1ccc(N2CC[C@@H]3CCN(C)C[C@@H]32)nn1
< 300 pM	CCN1CC[C@@H]2CCN(c3cc(C)c(-c4ccc(C)cc4O)nn3)[C@@H]2C1
